The record followed here is patent US12474342B2, “Methods for treating cancer and the use of biomarkers as a predictor of clinical sensitivity to therapies” (CELGENE CORPORATION, priority 2016, dated 2025).

In assay [1] the test system is p-eIF2α, ATF4, ATF3, CHOP/DDIT3, cleaved Caspases. Briefly: UPR / ATF4 pathway and apoptosis markers in U937 cells (wild type and CRISPR knockouts). It is filed as cell-based, human. As to conditions: for ATF4 pathway and apoptosis: 4 μM. An excerpt: PERK, one of the four eIF2α, kinases, was knocked out in U937 cells by CRISPR-mediated gene editing using PERK−/− Construct 1 or PERK−/− Construct 2.
GCN2, one of the four eIF2α, kinases, was knocked out in U937 cells by CRISPR-mediated gene editing using GCN2 CRISPR Construct 1 or GCN2 CRISPR Construct 4.

For assay [2], the system named is proteins in the UPR pathway, PARP. Briefly: UPR pathway proteins and PARP cleavage, western blot, healthy PBMCs. It is filed as cell-based, human. The note with it: 10 nM Compound D. On the technique in general: A western blot detects proteins with antibodies after separation by electrophoresis.
A further assay concerns DDIT3 (CHOP). Briefly: DDIT3 (CHOP) mRNA, quantitative PCR, KG-1. Format: cell-based, human. As to conditions: KG-1, 100 nM Compound D or greater. As to the method:
Compound D regulates UPR stress RNAs, ATF3 and CHOP, and nonsense-mediated decay (NMD) RNAs, SRSF3 and SRSF6, in KG-1 cells in both dose- and time-dependent manners. KG-1 cells were plated in 10 cm^2 dishes and incubated overnight. The following day, KG-1 cells were treated with a 6-point dose response (0, 3, 10, 30, 100, 300 nM) of Compound D and incubated for 2, 4, 8, and 20 hours. Cells were removed from dishes and cell pellets were prepared for RNA isolation (Qiagen RNA isolation kit). Total RNA was quantitated using NanoDrop spectrophotometer and cDNA was reversely transcribed using 1 μg total RNA. Quantitative PCR was performed in replicates for each sample using primer sets for ATF3, CHOP, and both NMD and normal transcripts of SRSF3 and SRSF6. Data was doubly normalized to the 18S housekeeping gene and 2 hour DMSO control. Normalized RNA expression (y-axis) versus drug concentration in nM (x-axis) for each time point was plotted. SRSF3-1 NMD and SRSF6-1 NMD depict amplification of NMD transcript for SRSF3 and SRSF6, respectively. SRSF3-3 Normal and SRSF6-3 Normal depict amplification of normal transcript for SRSF3 and SRSF6 genes, respectively. […] FIGS. 29A-29F show effects of Compound D treatment on UPR and NMD pathways in KG-1 cells. […] Additionally, 100 nM Compound D or greater induced the mRNA levels of ATF3 and DDIT3 (CHOP) approximately 100-fold and 10-fold, respectively. […]

A further assay deals with OCI-AML2 cells. Briefly: Anti-proliferation 72-hour CTG assay, OCI-AML2. It is filed as cell-based. The note with it: Homo sapiens; OCI-AML2, 72-hour CTG assay; read-out: IC50 of the anti-proliferative effect. As to the method:
A plethora of AML cell lines were treated with serial dilutions of Compound D. IC50 value of the anti-proliferation effect of Compound D (as determined in 72-hour CTG assays) in each cell line is summarized in Table 1.

The subject of a further assay is PARP. Briefly: PARP cleavage, western blot, HNT-34. Format: cell-based, human. The note with it: HNT-34, 10 nM Compound D.
Another assay deals with GSPT1 (Homo sapiens, UniProt P15170+Q96SW2). Briefly: GSPT1 protein reduction, western analysis, AML patient PBMCs. It is filed as cell-based. Also noted: reduction in GSPT1 protein level was evaluated in human normal PBMCs; endogenous in cells; host or cells: primary PBMCs from normal donors (ID 4328, 4379) and AML patients (ID 11SH, 09P6). The note with it: PBMC sample 11SH (AML).
GSPT1, sequence (P15170 1-637 isoform P15170-3): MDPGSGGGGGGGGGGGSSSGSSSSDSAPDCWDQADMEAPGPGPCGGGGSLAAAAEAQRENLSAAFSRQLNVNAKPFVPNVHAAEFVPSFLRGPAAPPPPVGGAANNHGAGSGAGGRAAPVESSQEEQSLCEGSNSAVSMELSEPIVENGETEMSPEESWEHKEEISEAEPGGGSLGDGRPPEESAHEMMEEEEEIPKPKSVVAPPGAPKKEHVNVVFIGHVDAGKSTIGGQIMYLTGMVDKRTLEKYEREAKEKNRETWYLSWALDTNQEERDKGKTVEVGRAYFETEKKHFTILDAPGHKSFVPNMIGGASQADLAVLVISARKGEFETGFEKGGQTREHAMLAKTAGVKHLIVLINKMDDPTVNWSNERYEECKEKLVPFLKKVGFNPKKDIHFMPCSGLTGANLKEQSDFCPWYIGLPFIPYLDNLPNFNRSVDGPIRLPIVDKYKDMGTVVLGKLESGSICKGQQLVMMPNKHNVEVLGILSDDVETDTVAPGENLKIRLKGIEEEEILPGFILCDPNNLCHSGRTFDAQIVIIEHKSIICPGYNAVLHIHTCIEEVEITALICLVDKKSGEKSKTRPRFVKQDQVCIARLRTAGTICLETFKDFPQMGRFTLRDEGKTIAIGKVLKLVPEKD
GSPT1, sequence (Q96SW2 whole entry): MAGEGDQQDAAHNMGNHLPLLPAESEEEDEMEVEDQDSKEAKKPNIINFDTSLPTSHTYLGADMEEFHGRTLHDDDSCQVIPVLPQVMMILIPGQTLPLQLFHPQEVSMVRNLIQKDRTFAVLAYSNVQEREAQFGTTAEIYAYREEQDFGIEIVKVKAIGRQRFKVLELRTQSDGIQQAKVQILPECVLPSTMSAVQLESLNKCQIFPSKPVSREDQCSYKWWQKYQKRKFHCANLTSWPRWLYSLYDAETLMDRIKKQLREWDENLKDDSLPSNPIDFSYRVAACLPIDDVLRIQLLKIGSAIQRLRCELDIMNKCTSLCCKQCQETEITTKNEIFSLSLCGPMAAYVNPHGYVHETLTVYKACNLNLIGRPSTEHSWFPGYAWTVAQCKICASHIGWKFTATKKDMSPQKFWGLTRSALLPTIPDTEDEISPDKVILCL
GSPT1, sequence (Q16531 whole entry partner): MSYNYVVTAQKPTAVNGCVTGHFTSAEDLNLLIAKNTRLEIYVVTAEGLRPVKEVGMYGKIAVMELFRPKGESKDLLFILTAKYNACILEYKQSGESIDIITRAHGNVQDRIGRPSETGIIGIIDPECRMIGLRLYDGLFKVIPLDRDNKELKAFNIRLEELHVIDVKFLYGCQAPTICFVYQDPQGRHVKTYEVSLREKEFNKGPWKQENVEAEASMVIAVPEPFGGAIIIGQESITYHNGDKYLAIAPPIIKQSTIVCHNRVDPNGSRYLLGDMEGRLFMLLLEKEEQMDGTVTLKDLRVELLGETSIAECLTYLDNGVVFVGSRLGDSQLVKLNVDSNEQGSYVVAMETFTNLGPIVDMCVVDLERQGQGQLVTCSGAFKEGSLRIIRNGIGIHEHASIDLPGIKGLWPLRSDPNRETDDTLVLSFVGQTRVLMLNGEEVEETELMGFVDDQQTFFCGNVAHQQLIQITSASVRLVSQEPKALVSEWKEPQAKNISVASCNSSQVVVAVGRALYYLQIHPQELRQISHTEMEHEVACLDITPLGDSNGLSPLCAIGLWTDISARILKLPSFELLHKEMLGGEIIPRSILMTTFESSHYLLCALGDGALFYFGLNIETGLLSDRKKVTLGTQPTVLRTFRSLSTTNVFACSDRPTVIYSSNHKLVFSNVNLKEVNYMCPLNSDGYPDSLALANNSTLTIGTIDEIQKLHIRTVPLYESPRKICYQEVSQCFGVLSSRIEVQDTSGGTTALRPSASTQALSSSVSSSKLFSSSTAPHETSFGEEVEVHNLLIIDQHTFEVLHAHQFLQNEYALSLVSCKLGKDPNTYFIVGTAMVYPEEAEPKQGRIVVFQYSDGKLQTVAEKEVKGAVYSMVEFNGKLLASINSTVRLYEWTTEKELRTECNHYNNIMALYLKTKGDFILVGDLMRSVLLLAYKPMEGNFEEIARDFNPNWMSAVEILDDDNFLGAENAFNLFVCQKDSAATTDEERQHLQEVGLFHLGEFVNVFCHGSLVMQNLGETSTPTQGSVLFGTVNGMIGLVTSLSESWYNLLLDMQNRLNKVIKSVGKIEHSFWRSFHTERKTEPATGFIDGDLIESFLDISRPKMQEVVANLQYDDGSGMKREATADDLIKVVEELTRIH

For another assay, the system named is KG-1 AML cell cultures. The assay is described as follows: Induction of apoptosis (Annexin V assay), KG-1. It is filed as cell-based. As to conditions: Homo sapiens, read-out: Induction of Apoptosis by Compound D (Annexin V assay) EC50.
For another assay, the system named is KG-1 cells. The assay is described as follows: Anti-proliferation CTG assay, KG-1. It is filed as cell-based, human. As to the method:
The effect of depletion of GSPT1 on the anti-proliferative effect of compound Compound D and Compound E was also determined in human acute myelogenous leukemia cell lines AML and KG1. […]

SMILES strings stand for the structures. Read-outs that look alike come from different tables or passages of the source.

As a reminder, the EC50 is the concentration at which the effect is half-maximal. Turning to `O=C1CCC(N2Cc3cc(CNC(=O)C(F)(F)c4ccc(Cl)cc4)ccc3C2=O)C(=O)N1` (stereo not drawn) [Compound D, 2-(4-chlorophenyl)-N-((2-(2,6-dioxopiperidin-3-yl)-1-oxoisoindolin-5-yl)methyl)-2,2-difluoroacetamide], the “ATF4 pathway and apoptosis” value is “blocked” in assay [1] (GCN2 knockout U937 cells); “induced the ATF4 pathway and apoptosis” in assay [1] (wild type U937 cells). In addition, the apoptosis entry in assay [1] (wild type and PERK knockout U937 cells, 2 μM) was “induced apoptosis”. For the same molecule, the “induction of proteins in the UPR pathway or cleavage of PARP” value in assay [2] was “did not occur”. Besides, in the assay with DDIT3 (CHOP), the “induction of DDIT3 (CHOP) mRNA level” value is given as roughly 10 fold. Besides, the IC50 in the assay with OCI-AML2 cells amounted to 57 nM; with KG-1 cells (Homo sapiens, KG-1, KG-1, Compound F 0 μM, read-out: Inhibition of Cell Proliferation by Compound D (CTG assay) IC50), 10 nM; in the assay with KG-1 cells (Homo sapiens, KG-1, KG-1, Compound F 30 μM, read-out: Inhibition of Cell Proliferation by Compound D (CTG assay) IC50) it was 1500 nM; with KG-1 cells (Homo sapiens, KG-1, 72-hour CTG assay, read-out: IC50 of the anti-proliferative effect), 15 nM; in the assay with KG-1 cells (read-out: Inhibition of Cell Proliferation by Compound D (CTG assay) IC50), 6800 nM. Further, in the assay with PARP, the “time of PARP cleavage” value was 24 h. The “Reduction in GSPT1 Protein Level” value at GSPT1 (100 nM Compound D, 8 hours) is recorded as 86%; on GSPT1 (100 nM Compound D, 22 hours), 100%; on GSPT1 (300 nM Compound D, 8 hours), 100%; on GSPT1 (300 nM Compound D, 22 hours) it was 100%. Moreover, the EC50 with KG-1 AML cell cultures (KG-1, Compound F 0 μM) worked out at 20 nM; in the assay with KG-1 AML cell cultures (KG-1, Compound F 0.1 μM), 30 nM; in the assay on KG-1 AML cell cultures (KG-1, Compound F 1.0 μM), 100 nM; in the assay with KG-1 AML cell cultures (KG-1, Compound F 10 μM) it was 1000 nM; in the assay with KG-1 AML cell cultures (KG-1, Compound F 100 μM), 8000 nM. Also, in the assay on KG-1 cells (KG1 parental or control shRNA cells, 0.0001 μM to 1 μM, two days), the “cell proliferation (CellTiter-Glo)” value is given as “exhibited anti-proliferative effect, particularly at high concentration”.
